Experiments:
[1] = target: T1, Beta-3 adrenergic receptor (Homo sapiens, UniProt P13945); experiment: Agonist activity at human beta-3 adrenergic receptor expressed in CHO cells assessed as cAMP levels at 100 nM relative to isoproterenol; assay type: functional, cell-based
Target sequence in this assay (P13945 whole entry, looked up): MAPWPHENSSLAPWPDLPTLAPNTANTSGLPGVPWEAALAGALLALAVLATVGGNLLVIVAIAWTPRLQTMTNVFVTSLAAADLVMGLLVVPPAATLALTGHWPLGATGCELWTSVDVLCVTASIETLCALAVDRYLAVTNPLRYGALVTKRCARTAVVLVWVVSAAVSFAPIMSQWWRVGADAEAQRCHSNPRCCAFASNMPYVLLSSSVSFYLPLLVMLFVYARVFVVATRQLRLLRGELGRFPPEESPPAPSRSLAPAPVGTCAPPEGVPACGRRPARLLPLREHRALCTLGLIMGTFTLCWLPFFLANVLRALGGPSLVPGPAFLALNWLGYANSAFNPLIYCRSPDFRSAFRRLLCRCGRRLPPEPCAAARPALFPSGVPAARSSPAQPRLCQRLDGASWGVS

[2] = target: Beta-2 adrenergic receptor (Homo sapiens, UniProt P07550); experiment: Agonist activity at human beta-2 adrenergic receptor expressed in CHO cells assessed as cAMP levels; assay type: functional, cell-based
[3] = target: T1, Beta-3 adrenergic receptor; experiment: Agonist activity at human beta3 adrenergic receptor expressed in CHO cells assessed as cAMP levels; assay type: functional, cell-based
Target sequence in this assay (P13945 whole entry): as the sequence (P13945 whole entry, looked up) above

[4] = target: Beta-1 adrenergic receptor (Homo sapiens, UniProt P08588); experiment: Agonist activity at human beta-1 adrenergic receptor expressed in CHO cells assessed as cAMP levels; assay type: functional, cell-based
Sequence of Beta-1 adrenergic receptor (P08588 whole entry): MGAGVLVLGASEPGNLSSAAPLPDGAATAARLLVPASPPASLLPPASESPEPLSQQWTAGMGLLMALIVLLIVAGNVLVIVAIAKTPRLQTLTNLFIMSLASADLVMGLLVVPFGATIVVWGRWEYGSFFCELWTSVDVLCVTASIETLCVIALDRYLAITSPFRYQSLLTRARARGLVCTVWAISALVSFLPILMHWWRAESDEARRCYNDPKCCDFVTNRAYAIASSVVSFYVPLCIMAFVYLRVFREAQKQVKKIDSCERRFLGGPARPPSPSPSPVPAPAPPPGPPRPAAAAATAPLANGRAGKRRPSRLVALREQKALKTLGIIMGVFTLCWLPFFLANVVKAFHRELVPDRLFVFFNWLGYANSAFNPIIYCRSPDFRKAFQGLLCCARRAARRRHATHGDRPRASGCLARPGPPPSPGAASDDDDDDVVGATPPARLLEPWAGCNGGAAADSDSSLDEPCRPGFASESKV

[5] = target: T1, Beta-3 adrenergic receptor; experiment: Agonist activity at human beta-3 adrenergic receptor expressed in CHO cells assessed as cAMP levels relative to isoproterenol; assay type: functional, cell-based; settings: filed as agonist
Target sequence in this assay (P13945 whole entry, looked up): as the sequence (P13945 whole entry, looked up) above

[6] = target: Beta-3 adrenergic receptor (Rattus norvegicus) (UniProt P26255); experiment: Agonist activity at rat beta-3 adrenergic receptor expressed in CHO cells assessed as cAMP levels relative to isoproterenol; assay type: functional, cell-based; settings: filed as agonist
Sequence of Beta-3 adrenergic receptor (Rattus norvegicus) (P26255 whole entry): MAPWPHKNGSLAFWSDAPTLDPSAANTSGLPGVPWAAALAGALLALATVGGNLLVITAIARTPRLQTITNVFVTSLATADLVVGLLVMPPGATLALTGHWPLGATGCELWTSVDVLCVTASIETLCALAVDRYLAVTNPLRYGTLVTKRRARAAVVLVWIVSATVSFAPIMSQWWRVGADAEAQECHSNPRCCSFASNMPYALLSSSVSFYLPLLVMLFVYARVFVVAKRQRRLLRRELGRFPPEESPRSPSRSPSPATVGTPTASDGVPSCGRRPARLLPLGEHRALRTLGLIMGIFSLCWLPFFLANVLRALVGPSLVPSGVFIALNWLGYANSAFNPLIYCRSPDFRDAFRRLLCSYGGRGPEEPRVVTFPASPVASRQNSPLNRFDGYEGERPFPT

[7] = target: Beta-3 adrenergic receptor (Rattus norvegicus, UniProt P26255); experiment: Agonist activity at rat beta-3 adrenergic receptor expressed in CHO cells assessed as cAMP levels; assay type: functional, cell-based
Sequence of Beta-3 adrenergic receptor (Rattus norvegicus, UniProt P26255) (P26255 whole entry): as above

Rattus norvegicus [8] = organism: Rattus norvegicus; experiment: Increase in heart rate in rat at 0.01 mM; assay type: functional
Rattus norvegicus [9] = experiment: Increase in energy expenditure in DIO Long-Evans rat at 10 mg/kg, po after 20 hrs relative to control; assay type: functional
Rattus norvegicus [10] = experiment: Reduction in respiratory quotient in DIO Long-Evans rat at 10 mg/kg, po after 20 hrs relative to control; assay type: functional; set-up: scale not given: the % may be the effect or the level left
[11] = AUC (0-6h) in DIO Long-Evans rat at 10 mg/kg, po; assay type: ADME, organism-based; set-up: time < 6 hr, dose 10 mg/kg, route oral; settings: plasma

Sequence of Beta-2 adrenergic receptor (P07550 whole entry): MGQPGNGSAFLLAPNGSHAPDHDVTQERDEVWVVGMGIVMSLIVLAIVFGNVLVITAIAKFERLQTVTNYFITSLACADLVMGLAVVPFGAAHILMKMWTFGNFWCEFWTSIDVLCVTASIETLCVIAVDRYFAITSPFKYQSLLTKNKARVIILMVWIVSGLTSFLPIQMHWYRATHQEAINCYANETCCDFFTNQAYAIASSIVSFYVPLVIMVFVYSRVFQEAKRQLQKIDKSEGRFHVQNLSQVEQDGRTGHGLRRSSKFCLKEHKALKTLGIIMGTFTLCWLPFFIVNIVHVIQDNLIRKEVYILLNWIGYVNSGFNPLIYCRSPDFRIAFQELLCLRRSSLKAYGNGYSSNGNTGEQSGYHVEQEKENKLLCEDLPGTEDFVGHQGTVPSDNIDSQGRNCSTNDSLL

| Activity [1] | Activity ([1]; filed as agonist) | EC50 [3] | EC50 [4] | Emax [5] | SMILES | Activity (Rattus norvegicus [8]) | also measured |
| --- | --- | --- | --- | --- | --- | --- | --- |
| 28% |  |  |  |  | CC(Cc1ccc(Oc2ccc(C(=O)O)cc2)cc1)NC[C@H](O)COc1cccc2c1n(C)c(=O)n2C (stereo not given in full) |  |  |
|  | 97% |  |  |  | CC(Cc1ccc(Oc2ccc(C(N)=O)cn2)cc1)NC[C@H](O)COc1cccc2[nH]c(=O)[nH]c12 (stereo not given in full) |  |  |
| 30% |  |  |  |  | CC(Cc1ccc(Oc2ccc(C(=O)O)cc2)cc1)NC[C@H](O)COc1cccc2c1[nH]c(=O)n2C (stereo not given in full) |  |  |
|  | 87% |  |  |  | CC(Cc1ccc(Oc2ccc(C(N)=O)cn2)cc1)NC[C@H](O)COc1cccc2[nH]c(=O)n(C)c12 (stereo not given in full) |  |  |
| 33% |  |  |  |  | CC(Cc1ccc(Oc2ccc(C(N)=O)cn2)cc1)NC[C@H](O)COc1cccc2c1[nH]c(=O)n2C (stereo not given in full) |  |  |
|  | 84% |  |  |  | CC(Cc1ccc(Oc2ccc(C(=O)O)cc2)cc1)NC[C@H](O)COc1cccc2[nH]c(=O)n(C)c12 (stereo not given in full) |  |  |
|  | 83% |  |  |  | CC(Cc1ccc(Oc2ccc(C#N)cn2)cc1)NC[C@H](O)COc1cccc2[nH]c(=O)n(C)c12 (stereo not given in full) |  |  |
|  |  | 0.0052 µM (agonist) | > 10 µM | 65.1% | CCn1c(=O)[nH]c2cccc(OC[C@@H](O)CNC(C)(C)Cc3ccc(Oc4ccc(C(N)=O)cn4)cc3)c21 | 20.8% | EC50 [2]: > 10 µM |
|  |  | 0.0101 µM (agonist) | > 10 µM | 58.2% | CC(C)(Cc1ccc(Oc2ccc(C(N)=O)cn2)cc1)NC[C@H](O)COc1cccc2[nH]c(=O)n(CCC3CCC3)c12 | 6.5% | Activity (Rattus norvegicus [9]): 18%; EC50 [2]: > 10 µM; Emax [6]: 49.6%; EC50 [7]: 0.0287 µM (agonist); Activity (Rattus norvegicus [10]): 29%; AUC(0-t) at 6 h [11]: 112 ng·h/mL |
| 25% |  |  |  |  | CC(Cc1ccc(Oc2ccc(C(N)=O)cn2)cc1)NC[C@H](O)COc1cccc2c1n(C)c(=O)n2C (stereo not given in full) |  |  |
|  |  | 0.0054 µM (agonist) | > 10 µM | 67.9% | CC(C)(Cc1ccc(Oc2ccc(C(N)=O)cn2)cc1)NC[C@H](O)COc1cccc2[nH]c(=O)n(CCC3CC3)c12 | 8.9% | EC50 [2]: > 10 µM; Emax [6]: 42.7%; EC50 [7]: 0.0068 µM (agonist) |
| 29% |  |  |  |  | CC(Cc1ccc(Oc2ccc(C#N)cn2)cc1)NC[C@H](O)COc1cccc2c1[nH]c(=O)n2C (stereo not given in full) |  |  |
|  |  | 0.0117 µM (agonist) | > 10 µM | 63.7% | CC(C)(Cc1ccc(Oc2ccc(C(N)=O)cn2)cc1)NC[C@H](O)COc1cccc2[nH]c(=O)n(CCC3CCCC3)c12 | 9.9% |  |
| 11% |  |  |  |  | CC(Cc1ccc(Oc2ccc(C#N)cn2)cc1)NC[C@H](O)COc1cccc2c1n(C)c(=O)n2C (stereo not given in full) |  |  |
|  |  | 0.0052 µM (agonist) | > 10 µM | 73.9% | CCCn1c(=O)[nH]c2cccc(OC[C@@H](O)CNC(C)(C)Cc3ccc(Oc4ccc(C(N)=O)cn4)cc3)c21 | 19.9% | EC50 [2]: > 10 µM |
|  | 99% |  |  |  | CC(Cc1ccc(Oc2ccc(C(=O)O)cc2)cc1)NC[C@H](O)COc1cccc2[nH]c(=O)[nH]c12 (stereo not given in full) |  |  |

| SMILES | Activity [1] | Activity ([1]; filed as agonist) | EC50 [3] | EC50 [4] | Emax [5] | Activity (Rattus norvegicus [8]) | also measured |
| --- | --- | --- | --- | --- | --- | --- | --- |
| Cn1c(=O)[nH]c2cccc(OC[C@@H](O)CNC(C)(C)Cc3ccc(Oc4ccc(C(N)=O)cn4)cc3)c21 |  |  | 0.0071 µM (agonist) | 0.0087 µM (agonist) | 79.7% | 17.7% | EC50 [2]: > 10 µM; Emax [6]: 59.6%; EC50 [7]: 0.0245 µM (agonist) |
| CC(Cc1ccc(Oc2ccc(C#N)cn2)cc1)NC[C@H](O)COc1cccc2[nH]c(=O)[nH]c12 (stereo not given in full) |  | 88% |  |  |  |  |  |

— ChEMBL document CHEMBL1139684, “Potent benzimidazolone based human beta(3)-adrenergic receptor agonists” (Bioorg Med Chem Lett, 2006)
